The term IC50 denotes the concentration at which inhibition is half-maximal.

Structures are written as SMILES.

The subject of one experiment is P. gingivalis adherence to S. gordonii. Description: Inhibition of P. gingivalis adherence to S. gordonii in two-species biofilm model. It counts as cell-based, P. gingivalis ATCC33277; S. gordonii DL-1. The note with it: Group III. The text has this:
To assess the functional activity of the click products, compounds 28-57 (Groups I and II) and 90-124 (Group III) were examined for inhibition of P. gingivalis adherence to S. gordonii using an established biofilm model system as described in the Section 4.2.1 [41]. For each compound tested, an IC50 value for adherence inhibition was approximated after quantifying the ratio of green to red fluorescence and these values are shown in Tables 2, 3 and 4. Compounds were classified as strong (IC50<10 μM), moderate (IC50=10-20 μM) or weak (IC50>20 μM) inhibitors of adherence. Twelve compounds were identified as strong inhibitors and an additional ten compounds were classified as moderate inhibitors. […] Compounds 54, 56, 93, 95, 100, 102, 103, and 115 were also tested to determine if they affect the growth of P. gingivalis or S. gordonii. […] The sulfoxide group does impart asymmetry to the molecule; however, the mixture of enantiomers, assuming the peracid oxidation was racemic, was not separated and bioassayed. The Group III active compounds (95-117) all contain the 1,3,5-trisubstituted-2,4,6-triazine modeled after the Katzenellenbogen rendering of an active motif whereby the key leucine residues which mimicked the VXXLL receptor box lie in a triangular arrangement. While the original iteration of the Katzenellenbogen VXXLL mimics were the hydrophobic 3,5-disubstituted-di-N-alkyamino-triazine motifs, we introduced the hydrophobic 2- and 4-(fluorophenyl)amino groups at positions 3 and 5 of the 2,4,6-triazine (See Compounds 102, 111, 115, 122).
P. gingivalis ATCC33277 was grown in reduced trypticase soy broth (Difco) supplemented with 0.5 percent yeast extract, 1 μg/mL menadione, and 5 μg/mL hemin. Twenty five milliliters of medium were reduced for 24 h under anaerobic conditions by equilibrating in an atmosphere consisting of 10% CO2, 10% H2, and 80% N2. Following equilibration, P. gingivalis was inoculated in the media and grown for 48 h at 37° C. under anaerobic conditions. S. gordonii DL-1 (1) was cultured aerobically without shaking in brain heart infusion (BHI) broth supplemented with 1 percent yeast extract for 16 hours at 37° C. For some compounds that inhibited P. gingivalis adherence to S. gordonii, we determined their affect the planktonic growth of P. gingivalis and S. gordonii. Broth cultures were grown as described above and compared to cultures grown in the absence of the compound. Cell density of each culture was determined by measuring the optical density at 600 nm (O.D.600 nm) after 24 h of growth. The percent growth inhibition/stimulation was calculated using the following equation: [(O.D.600 nm of the control/O.D.600 nm of the culture grown in the presence of compound)−1]×100.
Two species biofilms were formed essentially as previously described. To prepare bacterial cells for biofilm culture, 10 ml of an overnight S. gordonii culture was centrifuged at 5600 rpm for 5 min and the cell pellet was suspended in 1 mL sterile PBS. Subsequently, 20 μL of 5 mg/ml hexidium iodide (Molecular Probes) was added to the cell suspension and incubated for 15 min with gentle shaking at room temperature in the dark. The labeled cells were centrifuged as described above, washed with phosphate buffered saline (10 mM Na2HPO4, […], […], and 2.7 mM KCl, pH 7.2; [PBS]) and the cell pellet was suspended in PBS at a final O.D.600 nm of 0.8. Similarly, 10 mL of a 48 h culture of P. gingivalis was centrifuged at 5600 rpm for 15 min, the cell pellet was suspended in 1 mL PBS and 20 μl of 5(6)-carboxyfluorescein N-hydroxysuccinimide ester (4 mg/ml, Molecular Probes, Inc.) was added. After incubation for 30 min with gentle shaking at room temperature in the dark, the suspension was centrifuged and washed as described above and suspended in PBS at a final O.D.600 nm of 0.4. […]
The molecule `CCN(CC)c1nc(-c2cn(-c3cccc(-c4nc(-c5ccccc5)c(-c5ccccc5)o4)c3)nn2)nc(N(CC)CC)n1` [Compound 90] came in with an IC50 of 20.7 µM.

As to `CCN(CC)c1nc(-c2cn(-c3ccc(-c4nc(-c5ccccc5)c(-c5ccccc5)o4)cc3)nn2)nc(N(CC)CC)n1` [Compound 91], the IC50 is above 60 µM.

The molecule `CCN(CC)c1nc(-c2cn(-c3cccc(-c4nc(-c5ccc(F)cc5)c(-c5ccc(F)cc5)o4)c3)nn2)nc(N(CC)CC)n1` [Compound 92] showed an IC50 above 60 µM.

Take `CCN(CC)c1nc(-c2cn(-c3cccc(-c4nc(-c5ccc(Cl)cc5)c(-c5ccc(Cl)cc5)o4)c3)nn2)nc(N(CC)CC)n1` [Compound 94]: the IC50 worked out at 16 µM.

The molecule `CCN(CC)c1nc(-c2cn(-c3cccc(-c4nc(-c5ccc(OC)cc5)c(-c5ccc(OC)cc5)o4)c3)nn2)nc(N(CC)CC)n1` [Compound 96] registered an IC50 above 60 µM.

Turning to `CCN(CC)c1nc(-c2cn(-c3ccc(-c4nc(-c5ccc(OC)cc5)c(-c5ccc(OC)cc5)o4)cc3)nn2)nc(N(CC)CC)n1` [Compound 97], half-maximal inhibition (IC50) was put at 36.6 µM.

For `CCN(CC)c1nc(-c2cn(-c3cccc(-c4nc(-c5ccco5)c(-c5ccco5)o4)c3)nn2)nc(N(CC)CC)n1` [Compound 98], the half-maximal inhibitory concentration (IC50) was above 60 µM.

For `CCN(CC)c1nc(-c2cn(-c3ccc(-c4nc(-c5ccco5)c(-c5ccco5)o4)cc3)nn2)nc(N(CC)CC)n1` [Compound 99], the IC50 is above 60 µM.

In turn, `Fc1ccccc1Nc1nc(Nc2ccccc2F)nc(-c2cn(-c3ccc(-c4nc(-c5ccccc5)c(-c5ccccc5)o4)cc3)nn2)n1` [Compound 101] yielded an IC50 above 60 µM.

Turning to `Fc1ccccc1Nc1nc(Nc2ccccc2F)nc(-c2cn(-c3cccc(-c4nc(-c5ccc(Cl)cc5)c(-c5ccc(Cl)cc5)o4)c3)nn2)n1` [Compound 104], 33.8 µM corresponded to half-maximal inhibition (IC50).

`Fc1ccccc1Nc1nc(Nc2ccccc2F)nc(-c2cn(-c3ccc(-c4nc(-c5ccc(Cl)cc5)c(-c5ccc(Cl)cc5)o4)cc3)nn2)n1` [Compound 105]: the IC50 is above 60 µM.

`COc1ccc(-c2nc(-c3cccc(-n4cc(-c5nc(Nc6ccccc6F)nc(Nc6ccccc6F)n5)nn4)c3)oc2-c2ccc(OC)cc2)cc1` [Compound 106] returned a half-inhibitory concentration (IC50) above 60 µM.

`COc1ccc(-c2nc(-c3ccc(-n4cc(-c5nc(Nc6ccccc6F)nc(Nc6ccccc6F)n5)nn4)cc3)oc2-c2ccc(OC)cc2)cc1` [Compound 107]: the IC50 stood at 40 µM.

Regarding `Fc1ccccc1Nc1nc(Nc2ccccc2F)nc(-c2cn(-c3cccc(-c4nc(-c5ccco5)c(-c5ccco5)o4)c3)nn2)n1` [Compound 108], the half-maximal inhibitory concentration (IC50) was above 60 µM.

Turning to `Fc1ccccc1Nc1nc(Nc2ccccc2F)nc(-c2cn(-c3ccc(-c4nc(-c5ccco5)c(-c5ccco5)o4)cc3)nn2)n1` [Compound 109], the half-maximal inhibitory concentration (IC50) is above 60 µM.

`Fc1ccc(Nc2nc(Nc3ccc(F)cc3)nc(-c3cn(-c4ccccc4-c4nc(-c5ccccc5)c(-c5ccccc5)o4)nn3)n2)cc1` [Compound 110] displayed a half-inhibitory concentration (IC50) above 60 µM.

Staying with this experiment, now noted: Table 2, Group I triazoles; concentration reducing ratio of green (P. gingivalis) to red (S. gordonii) fluorescence by 50%; approximated.
Consider `[O-][S+](Cc1nc(-c2ccccc2)c(-c2ccccc2)o1)c1ccc(-n2cc(-c3cccnc3)nn2)cc1` (racemic) [Compound 28, 4,5-Diphenyl-2-(((4-(4-(pyridin-3-yl)-1H-1,2,3-triazol-1-yl)phenyl)sulfinyl)methyl) oxazole], for which the half-inhibitory concentration (IC50) was above 60 µM.

Take `[O-][S+](Cc1nc(-c2ccccc2)c(-c2ccccc2)o1)c1ccc(-n2cc(-c3ccc(F)cc3)nn2)cc1` (centres unmarked) [Compound 29]: the IC50 is above 60 µM.

On to `[O-][S+](Cc1nc(-c2ccccc2)c(-c2ccccc2)o1)c1ccc(-n2cc(-c3cccc(F)c3)nn2)cc1` (centres unmarked) [Compound 30], for which the IC50 came to 47.3 µM.

Take `COc1ccccc1-c1cn(-c2ccc([S+]([O-])Cc3nc(-c4ccccc4)c(-c4ccccc4)o3)cc2)nn1` (centres unmarked) [Compound 31]: the IC50 was above 60 µM.

As to `[O-][S+](Cc1nc(-c2ccccc2)c(-c2ccccc2)o1)c1ccc(-n2cc(-c3ccccc3C(F)(F)F)nn2)cc1` (centres unmarked) [Compound 32], the half-maximal inhibitory concentration (IC50) was above 60 µM.

Turning to `COc1ccc2cc(-c3cn(-c4ccc([S+]([O-])Cc5nc(-c6ccccc6)c(-c6ccccc6)o5)cc4)nn3)ccc2c1` (centres unmarked) [Compound 33], the 50% inhibitory concentration (IC50) was above 60 µM.

Take `CCCCCc1ccc(-c2cn(-c3ccc([S+]([O-])Cc4nc(-c5ccccc5)c(-c5ccccc5)o4)cc3)nn2)cc1` (centres unmarked) [Compound 34]: the IC50 is above 60 µM.

As to `[O-][S+](Cc1nc(-c2ccccc2)c(-c2ccccc2)o1)c1ccc(-n2cc(-c3ccc(Oc4ccccc4)cc3)nn2)cc1` (centres unmarked) [Compound 35], the IC50 was above 60 µM.

With `[O-][S+](Cc1nc(-c2ccccc2)c(-c2ccccc2)o1)c1ccc(-n2cc(-c3cc(C(F)(F)F)cc(C(F)(F)F)c3)nn2)cc1` (centres unmarked) [Compound 36], the IC50 is above 60 µM.

Consider `O=S(=O)(Cc1nc(-c2ccccc2)c(-c2ccccc2)o1)c1ccc(-n2cc(-c3cccnc3)nn2)cc1` [Compound 37], for which the concentration for half-maximal inhibition (IC50) is above 60 µM.

Turning to `O=S(=O)(Cc1nc(-c2ccccc2)c(-c2ccccc2)o1)c1ccc(-n2cc(-c3ccc(F)cc3)nn2)cc1` [Compound 38], the half-inhibitory concentration (IC50) turned out to be 15.7 µM.

For `O=S(=O)(Cc1nc(-c2ccccc2)c(-c2ccccc2)o1)c1ccc(-n2cc(-c3cccc(F)c3)nn2)cc1` [Compound 39], the half-inhibitory concentration (IC50) was found to be 33.6 µM.

In the case of `COc1ccccc1-c1cn(-c2ccc(S(=O)(=O)Cc3nc(-c4ccccc4)c(-c4ccccc4)o3)cc2)nn1` [Compound 40], the IC50 amounted to 13.1 µM.

On to `O=S(=O)(Cc1nc(-c2ccccc2)c(-c2ccccc2)o1)c1ccc(-n2cc(-c3ccccc3C(F)(F)F)nn2)cc1` [Compound 41], for which the IC50 is above 60 µM.

Regarding `COc1ccc2cc(-c3cn(-c4ccc(S(=O)(=O)Cc5nc(-c6ccccc6)c(-c6ccccc6)o5)cc4)nn3)ccc2c1` [Compound 42], the 50% inhibitory concentration (IC50) is above 60 µM.

Turning to `CCCCCc1ccc(-c2cn(-c3ccc(S(=O)(=O)Cc4nc(-c5ccccc5)c(-c5ccccc5)o4)cc3)nn2)cc1` [Compound 43], the IC50 was determined as 36.6 µM.

For `O=S(=O)(Cc1nc(-c2ccccc2)c(-c2ccccc2)o1)c1ccc(-n2cc(-c3ccc(Oc4ccccc4)cc3)nn2)cc1` [Compound 44], the IC50 was determined as 16.5 µM.

In the case of `O=S(=O)(Cc1nc(-c2ccccc2)c(-c2ccccc2)o1)c1ccc(-n2cc(-c3cc(C(F)(F)F)cc(C(F)(F)F)c3)nn2)cc1` [Compound 45], the IC50 stood at 38.5 µM.

The experiment is the same for the next values; noted with them: Table 3, Group II click products; concentration reducing green to red fluorescence ratio by 50%; approximated.
As for `[O-][S+](Cc1nc(-c2ccc(F)cc2)c(-c2ccc(F)cc2)o1)c1ccc(-n2cc(-c3cccc(F)c3)nn2)cc1` (centres unmarked) [Compound 46], the IC50 was 5.3 µM.

Regarding `[O-][S+](Cc1nc(-c2ccc(F)cc2)c(-c2ccc(F)cc2)o1)c1ccc(-n2cc(-c3ccc(F)cc3)nn2)cc1` (centres unmarked) [Compound 47], the IC50 came to 35.9 µM.

On to `COc1ccccc1-c1cn(-c2ccc([S+]([O-])Cc3nc(-c4ccc(F)cc4)c(-c4ccc(F)cc4)o3)cc2)nn1` (centres unmarked) [Compound 48], for which the IC50 was 7.2 µM.

Regarding `[O-][S+](Cc1nc(-c2ccc(Cl)cc2)c(-c2ccc(Cl)cc2)o1)c1ccc(-n2cc(-c3cccc(F)c3)nn2)cc1` (centres unmarked) [Compound 49], the IC50 was 15.1 µM.

As for `[O-][S+](Cc1nc(-c2ccc(Cl)cc2)c(-c2ccc(Cl)cc2)o1)c1ccc(-n2cc(-c3ccc(F)cc3)nn2)cc1` (centres unmarked) [Compound 50], the half-maximal inhibitory concentration (IC50) was 39.8 µM.

As for `COc1ccccc1-c1cn(-c2ccc([S+]([O-])Cc3nc(-c4ccc(Cl)cc4)c(-c4ccc(Cl)cc4)o3)cc2)nn1` (centres unmarked) [Compound 51], the IC50 was found to be 10.2 µM.

In the case of `O=S(=O)(Cc1nc(-c2ccc(Cl)cc2)c(-c2ccc(Cl)cc2)o1)c1ccc(-n2cc(-c3cccc(F)c3)nn2)cc1` [Compound 55], the half-maximal inhibitory concentration (IC50) worked out at 18.2 µM.

For the origin of these results see US12215104B2, “Anti-biofilm compounds” (UNIVERSITY OF LOUISVILLE RESEARCH FOUNDATION, INC., priority 2018, dated 2025).
